From patent publication US4039535A, “7-[α-(GUANYL-1-UREIDO)PHENYLACETAMIDO]-3-SUBSTITUTED CEPHALOSPORIN ANTIBIOTICS” (Eli Lilly and Company, priority 1976, dated 1977)
Values after ≈ are worked out from the molar mass of the structure shown. Where two headings read alike, the source gives them in different places.

Key:
Assay type in all cases: cell-based
[1] = system: gram-negative microorganisms; assay: Antibiotic activity against gram-negative microorganisms, summary of Table I; conditions: in words; MIC values in Table I; vs compound E
Protocol: (§1) In the tables the minimum inhibitory concentrations (MIC) of the listed compound verses the indicated gram-positive and gram-negative microorganisms is presented.
(§2) The MIC values were determined by the Gradient Plate Method which is essentially the method described by Bryson and Szybalski, Science, 116, 45-46 (1952).

[2] = system: penicillin resistant staphylococcus V41; assay: MIC by Gradient Plate Method vs penicillin resistant staphylococcus clinical isolates (Table II); conditions: read-out: Minimum Inhibitory Concentration
Protocol: as §1, §2

[3] = system: penicillin resistant staphylococcus V84; assay: as above; conditions: read-out: Minimum Inhibitory Concentration
Protocol: as §1, §2

[4] = system: penicillin resistant staphylococcus V32; assay: as above; conditions: read-out: Minimum Inhibitory Concentration
Protocol: as §1, §2

[5] = system: penicillin resistant staphylococcus X1.1; assay: as above; conditions: read-out: Minimum Inhibitory Concentration
Protocol: as §1, §2

[6] = system: Serratia marcescens; assay: MIC by Gradient Plate Method, in vitro antibiotic activity vs gram-negative microorganisms (Table I); conditions: read-out: Minimum Inhibitory Conc.
Protocol: as §1, §2

[7] = system: Pseudomonas aeruginosa; assay: as above; conditions: read-out: Minimum Inhibitory Conc.
Protocol: as §1, §2

[8] = system: Aerobacter aerogenes; assay: as above; conditions: Klebsiella aerogenes, read-out: Minimum Inhibitory Conc.
Protocol: as §1, §2

[9] = system: Escherichia coli; assay: as above; conditions: read-out: Minimum Inhibitory Conc.
Protocol: as §1, §2

[10] = system: Salmonella heidelberg; assay: as above; conditions: Salmonella enterica, read-out: Minimum Inhibitory Conc.
Protocol: as §1, §2

[11] = system: Klebsiella pneumoniae; assay: as above; conditions: read-out: Minimum Inhibitory Conc.
Protocol: as §1, §2

[12] = system: Shigella sp.; assay: as above; conditions: read-out: Minimum Inhibitory Conc.
Protocol: as §1, §2

Q: For `Cn1nnnc1SCC1=C(C(=O)O)N2C(=O)C(NC(=O)[C@H](NC(=O)NC(=N)N)c3ccccc3)C2SC1` (stereo partly drawn) [A, 7-[D-α-(3-Guanyl-1-ureido)phenylacetamido]-3-(1-methyl-1H-tetrazol-5yl-thiomethyl)-3-cephem-4-carboxylic acid], which “activity against gram-negative microorganisms compared with known compound E” value (“activity … compared with known compound E” below) [1] is on record?
A: Its value is “significantly greater activity against gram-negative microorganisms than the known compound, E”.

Q: What about the MIC ([2]; N.S. = in the absence of serum) of the same molecule?
A: Its MIC is 0.7 µg/mL (≈ 1.28 µM).

Q: What about the MIC ([2]; S = in the presence of serum) of the same molecule?
A: The MIC was 1 µg/mL.

Q: What about the MIC ([3]; N.S. = in the absence of serum) of the same molecule?
A: The MIC was 0.6 µg/mL (≈ 1.1 µM).

Q: What about the MIC ([3]; S = in the presence of serum) of the same molecule?
A: Its MIC is 1 µg/mL.

Q: And the MIC ([4]; N.S. = in the absence of serum)?
A: The MIC was 1 µg/mL (≈ 1.83 µM).

Q: And the MIC ([4]; S = in the presence of serum)?
A: Its MIC is 9 µg/mL.

Q: What about the MIC ([5]; N.S. = in the absence of serum) of the same molecule?
A: The MIC was 0.5 µg/mL (≈ 0.915 µM).

Q: What about the MIC ([5]; S = in the presence of serum) of the same molecule?
A: The MIC was less than 0.1 µg/mL.

Q: And the MIC [6]?
A: Its MIC is 7 µg/mL (≈ 12.8 µM).

Q: What about the MIC [7] of the same molecule?
A: Its MIC is 53.5 µg/mL (≈ 97.9 µM).

Q: And the MIC [8]?
A: The MIC was 0.7 µg/mL (≈ 1.28 µM).

Q: And the MIC [9]?
A: The MIC was 2 µg/mL (≈ 3.66 µM).

Q: And the MIC [10]?
A: The MIC was 0.8 µg/mL (≈ 1.46 µM).

Q: What about the MIC [11] of the same molecule?
A: The MIC was 1 µg/mL (≈ 1.83 µM).

Q: What about the MIC [12] of the same molecule?
A: The MIC was 2 µg/mL (≈ 3.66 µM).

Q: Which “activity … compared with known compound E” value [1] does the source give for `Cc1nnc(SCC2=C(C(=O)O)N3C(=O)C(NC(=O)[C@H](NC(=O)NC(=N)N)c4ccccc4)C3SC2)s1` (stereo partly drawn) [B, 7-[d-α-(3-guanyl-1-ureido)phenylacetamido]-3-(5-methyl-1,3,4-thiadiazol-2-yl-thiomethyl)-3-cephem-4-carboxylid acid] here?
A: Its value is “significantly greater activity against gram-negative microorganisms than the known compound, E”.

Q: And the MIC ([2]; N.S. = in the absence of serum)?
A: Its MIC is 1 µg/mL (≈ 1.78 µM).

Q: And the MIC ([2]; S = in the presence of serum)?
A: The MIC was greater than 20 µg/mL.

Q: And the MIC ([3]; N.S. = in the absence of serum)?
A: The MIC was 0.6 µg/mL (≈ 1.07 µM).

Q: And the MIC ([3]; S = in the presence of serum)?
A: Its MIC is 10 µg/mL.

Q: And the MIC ([4]; N.S. = in the absence of serum)?
A: The MIC was 1 µg/mL (≈ 1.78 µM).

Q: What about the MIC ([4]; S = in the presence of serum) of the same molecule?
A: Its MIC is greater than 20 µg/mL.

Q: What about the MIC ([5]; N.S. = in the absence of serum) of the same molecule?
A: The MIC was 0.6 µg/mL (≈ 1.07 µM).

Q: And the MIC ([5]; S = in the presence of serum)?
A: Its MIC is 10 µg/mL.

Q: And the MIC [6]?
A: Its MIC is 14.3 µg/mL (≈ 25.4 µM).

Q: What about the MIC [7] of the same molecule?
A: The MIC was 104 µg/mL (≈ 185 µM).

Q: And the MIC [8]?
A: The MIC was 1 µg/mL (≈ 1.78 µM).

Q: What about the MIC [9] of the same molecule?
A: The MIC was 8.7 µg/mL (≈ 15.5 µM).

Q: What about the MIC [10] of the same molecule?
A: Its MIC is 6 µg/mL (≈ 10.7 µM).

Q: And the MIC [11]?
A: Its MIC is 1 µg/mL (≈ 1.78 µM).

Q: And the MIC [12]?
A: The MIC was 5.5 µg/mL (≈ 9.78 µM).

Q: Which results are given for `Cn1nnnc1SCC1=C(C(=O)O)N2C(=O)C(NC(=O)[C@H](NC(=O)NC(=N)N)c3ccc(O)cc3)C2SC1` (stereo partly drawn) [C, 7-[d-α-(3-guanyl-1-ureido)-4-hydroxyphenylacetamido]-3-(1-methyl-1H-tetrazol-5-yl-thiomethyl)-3-cephem-4-carboxylic acid]?
A: activity against gram-negative microorganisms compared with known compound E [1]: significantly greater activity against gram-negative microorganisms than the known compound, E; MIC ([2]; N.S. = in the absence of serum): < 0.1 µg/mL; MIC ([2]; S = in the presence of serum): 10 µg/mL; MIC ([3]; N.S. = in the absence of serum): < 0.1 µg/mL; MIC ([3]; S = in the presence of serum): 1 µg/mL; MIC ([4]; N.S. = in the absence of serum): 1 µg/mL (≈ 1.78 µM); MIC ([4]; S = in the presence of serum): 10 µg/mL; MIC ([5]; N.S. = in the absence of serum): < 0.1 µg/mL; MIC ([5]; S = in the presence of serum): 0.6 µg/mL; MIC [6]: 21 µg/mL (≈ 37.3 µM); MIC [7]: 23 µg/mL (≈ 40.9 µM); MIC [8]: 0.1 µg/mL (≈ 0.178 µM); MIC [9]: 0.7 µg/mL (≈ 1.24 µM); MIC [10]: 0.2 µg/mL (≈ 0.355 µM); MIC [11]: 1.2 µg/mL (≈ 2.13 µM); MIC [12]: 0.7 µg/mL (≈ 1.24 µM)

Q: For `Cc1nnc(SCC2=C(C(=O)O)N3C(=O)C(NC(=O)[C@H](NC(=O)NC(=N)N)c4ccc(O)cc4)C3SC2)s1` (stereo partly drawn) [D, 7-[d-α-(3-guanyl-1-ureido)-4-hydroxyphenylacetamido]-3-(5-methyl-1,3,4-thiadiazol-2-yl-thiomethyl)-3-cephem-4-carboxylic acid], which “activity … compared with known compound E” value [1] is on record?
A: The value was “significantly greater activity against gram-negative microorganisms than the known compound, E”.

Q: And the MIC ([2]; N.S. = in the absence of serum)?
A: Its MIC is 1 µg/mL (≈ 1.73 µM).

Q: And the MIC ([2]; S = in the presence of serum)?
A: Its MIC is 6 µg/mL.

Q: What about the MIC ([3]; N.S. = in the absence of serum) of the same molecule?
A: Its MIC is 1 µg/mL (≈ 1.73 µM).

Q: And the MIC ([3]; S = in the presence of serum)?
A: The MIC was 2 µg/mL.

Q: What about the MIC ([4]; N.S. = in the absence of serum) of the same molecule?
A: Its MIC is 1 µg/mL (≈ 1.73 µM).

Q: And the MIC ([4]; S = in the presence of serum)?
A: The MIC was 12 µg/mL.

Q: What about the MIC ([5]; N.S. = in the absence of serum) of the same molecule?
A: The MIC was 1 µg/mL (≈ 1.73 µM).

Q: What about the MIC ([5]; S = in the presence of serum) of the same molecule?
A: The MIC was 1 µg/mL.

Q: And the MIC [6]?
A: The MIC was 50 µg/mL (≈ 86.4 µM).

Q: And the MIC [7]?
A: Its MIC is 50 µg/mL (≈ 86.4 µM).

Q: What about the MIC [8] of the same molecule?
A: Its MIC is 1 µg/mL (≈ 1.73 µM).

Q: And the MIC [9]?
A: The MIC was 6 µg/mL (≈ 10.4 µM).

Q: What about the MIC [10] of the same molecule?
A: The MIC was 1 µg/mL (≈ 1.73 µM).

Q: What about the MIC [11] of the same molecule?
A: The MIC was 1 µg/mL (≈ 1.73 µM).

Q: What about the MIC [12] of the same molecule?
A: The MIC was 4.5 µg/mL (≈ 7.78 µM).

Q: With `CC(=O)OCC1=C(C(=O)O)N2C(=O)C(NC(=O)[C@H](NC(=O)NC(=N)N)c3ccccc3)C2SC1` (stereo partly drawn) [E, 7-[d-α-(3-guanyl-1-ureido)phenylacetamido]-3-acetoxymethyl-3-cephem-4-carboxylic acid, reference compound] as the molecule, how does the MIC ([2]; N.S. = in the absence of serum) read?
A: The MIC was 0.5 µg/mL (≈ 1.02 µM).

Q: And the MIC ([2]; S = in the presence of serum)?
A: Its MIC is 1 µg/mL.

Q: And the MIC ([3]; N.S. = in the absence of serum)?
A: Its MIC is 0.6 µg/mL (≈ 1.22 µM).

Q: What about the MIC ([3]; S = in the presence of serum) of the same molecule?
A: Its MIC is 1 µg/mL.

Q: What about the MIC ([4]; N.S. = in the absence of serum) of the same molecule?
A: The MIC was 0.7 µg/mL (≈ 1.43 µM).

Q: And the MIC ([4]; S = in the presence of serum)?
A: Its MIC is 1 µg/mL.

Q: And the MIC ([5]; N.S. = in the absence of serum)?
A: Its MIC is 0.6 µg/mL (≈ 1.22 µM).

Q: And the MIC ([5]; S = in the presence of serum)?
A: The MIC was 1 µg/mL.

Q: What about the MIC [6] of the same molecule?
A: Its MIC is 31.5 µg/mL (≈ 64.2 µM).

Q: And the MIC [7]?
A: Its MIC is 100 µg/mL (≈ 204 µM).

Q: What about the MIC [8] of the same molecule?
A: The MIC was 4.5 µg/mL (≈ 9.17 µM).

Q: And the MIC [9]?
A: The MIC was 13.8 µg/mL (≈ 28.1 µM).

Q: And the MIC [10]?
A: Its MIC is 6 µg/mL (≈ 12.2 µM).

Q: What about the MIC [11] of the same molecule?
A: Its MIC is 21.5 µg/mL (≈ 43.8 µM).

Q: What about the MIC [12] of the same molecule?
A: Its MIC is 16.3 µg/mL (≈ 33.2 µM).
